Here are results for 20 compounds from patent US20200281873A1, “Adamantane or Bicyclic Monoterpenoid Derivatives for Use in the Treatment of Leishmaniasis” (Commissariat a l'Energie Atomique et aux Energies …, priority 2017, published 2020).

Read-outs that look alike come from different tables or passages of the source.

The test system of data set [1] is Leishmania infantum axenic amastigotes. Description: Evaluation on Leishmania donovani infantum axenic amastigotes (SYBR Green I). The class given is cell-based. As for the experimental part: Protocol for Evaluation on Leishmania donovani infantum Axenic Amastigotes
Amastigote forms of the parasite were suspended to yield 10^7 parasitic cells mL^−1. The maximum final compound concentration used was 100 μM. Triplicates were used for each concentration. Cultures were incubated at 37° C. for 72 h in the dark and under a 5% CO2 atmosphere, then the viability of the amastigotes was assessed using the SYBR® Green I (Invitrogen, France) incorporation method. Parasite growth was determined by using SYBR® Green I, a dye with marked fluorescence enhancement upon contact with parasite DNA. Parasites were lysed and quantified by Direct PCR-Cell Genotyping without DNA isolation protocol (Euromedex, France). 10 μL of lysed parasite solution from each well was added to 40 μL of PCR-Cell reagent containing the SYBR® green I in a qPCR plate of 96 wells, and the contents were mixed. Fluorescence was measured with Mastercycler® ep realplex (Eppendorf, France). Measured fluorescence was compared to that from the range obtained with different parasite densities. The antileishmanial activity was expressed as IC50 in μM (concentration of drug inhibiting 50% of the parasite growth, comparatively to the controls treated with the excipient only).

The test system of data set [2] is L. infantum intramacrophagic amastigotes. The experiment in a line: L. donovani infantum/RAW 264.7 macrophage model (intramacrophagic amastigotes, SYBR Green I). The class given is cell-based, Leishmania donovani infantum. As for the experimental part: Protocol for Evaluation on the L. donovani infantum/RAW 264.7 Macrophage Model (Intramacrophagic Amastigotes)
Mouse macrophage cells RAW 264.7 (ATCC) were seeded into a 96-well microplate and maintained in DMEM medium (Applied Biosystems, France) supplemented with 10% heat-inactivated fetal bovine serum in a 5% CO2 incubator at 37° C. for 24 h. Then, the medium was replaced with 100 μL fresh medium containing a suspension of 10^5 L. infantum amastigotes and the incubation time was 16 h. Then, extracellular parasites were eliminated from the medium and 100 μL fresh medium containing compound in various concentrations were added for a 48 h-incubation. Parasite growth was determined by using SYBR® Green I (Life technology, Fisher Scientific, France), a dye with marked fluorescence enhancement upon contact with DNA. The cell lysis suspension was diluted 1:1 in lysis buffer (10 mM NaCl, 1 mM Tris HCl pH8, 2.5 mM EDTA pH 8, 0.05% SDS, 0.01 mg/mL proteinase K and 10×SYBR Green I). Incorporation of SYBR Green I in DNA amplification was measured using the Master epRealplex cycler® (Eppendorf, France) according to the following program to increase the SYBR green incorporation: 90° C. for 1 min, decrease in temperature from 90° C. to 10° C. for 5 min with reading the fluorescence at 10° C. for 1 min and a new reading at 10° C. for 2 min. The EC50 as the concentration inhibiting the parasite growth by 50% was calculated by nonlinear regression using icestimator website 1.2 version: http://www.antimalarial-icestimator.net/MethodIntro.htm.

Data set [3] in a line: Cytotoxicity on RAW 264.7 macrophages. Type of data set: cell-based, Mouse. To be noted: mouse, RAW 264.7 macrophages; Table I.
Data set [4] has as its system L. donovani (MHOM/ET/67/HU3) amastigotes. Description: In vivo antileishmanial evaluation, Leishmania donovani/Balb/c mouse model (liver parasite load). Particulars: for % reduction of parasite burden in the liver / LDU ± SD (parasites in the liver): Balb/c mice. As for the experimental part:
Compounds VP343, VP370 were evaluated in vivo for their antileishmanial properties by oral and intravenous route on the Leishmania donovani/Balb/c mouse model, comparatively to miltefosine, used as reference drug, according to a previously described protocol (Balaraman et al., 2015). Six- to eight-week-old Balb/c mice (Élevages Janvier, Le Genest Saint Isle, France) were infected intravenously on day 1 with 10^7 L. donovani (MHOM/ET/67/HU3) amastigotes derived from the spleen of hamsters and randomly sorted into four groups of 10 mice and one group of 12 mice as infected controls but not treated. The treatment administered orally or intravenously, started one week post-infection, on day 8, and continued for 5 consecutive days. At day 15, all groups of mice were autopsied and livers and spleens were weighed. Parasite load in the liver was determined by counting the number of amastigotes/500 liver cells in Giemsa-stained impression smears prepared from the liver and applying Stauber's formula. Three researchers counted the slides independently and the results are expressed as the mean values±SD. The parasite burden of treated groups and controls were compared using Student's t-test or the Kruskal-Wallis nonparametric analysis of variance test for comparing two groups. Significance was established for a P value<0.05.

The subject of data set [5] is L. infantum intramacrophagic amastigotes. Description: L. donovani infantum/RAW 264.7 macrophage model (intramacrophagic amastigotes, SYBR Green I). To be noted: Table I; ratio. Type of data set: cell-based, Leishmania donovani infantum.
A further data set relates to RAW 264.7 macrophages. Description: Cytotoxicity on RAW 264.7 macrophages. Type of data set: cell-based, Mouse. To be noted: Table I.
A short description of data set [6]: In vivo toxicity evaluation by oral route in mice (serum biochemical parameters). More on the design: species or system Balb/C female mice; Serum urea: unit not given here. As for the experimental part:
Biochemical parameters relative to VP343 and VP370 toxicity in Balb/C female mice (18-20 g) after a single treatment by oral route at 100 mg/kg under a 0.1 mL volume (=5 mL/kg). Serum were collected one week after the treatment. Excipient: Methylcellulose 1%+Tween 0.1%.
Dosages were performed with a Cobas 800 (Roche/Hitachi) apparatus.

Setting [7] is: Leishmania infantum, Table II, 3 different experiments, SYBR Green I method, read-out: IC50 axenic.
[8] abbreviates: Leishmania infantum, Macrophage, Table II, 3 different experiments, SYBR Green I method, read-out: IC50 intramacrophagic.
Where [9] appears, read: Leishmania infantum, Table I, 72 h incubation, read-out: Axenic amastigotes IC50.
The mark [10] stands for this setting: Leishmania infantum, RAW264.7, Table I, RAW 264.7 macrophages, 48 h incubation, read-out: Intramacrophagic amastigotes IC50.
Where [11] appears, read: intravenous route, 10 mg/kg/day × 5.
Where [12] appears, read: single oral treatment 100 mg/kg, serum one week after treatment.

By IC50 is commonly meant the concentration that gives 50% inhibition. What is called CC50 is the concentration that lowers cell viability or growth by half.

Take `C[C@@H]1[C@@H](NCc2c[nH]c3ccccc23)C[C@H]2C[C@@H]1C2(C)C` [VP359]: the half-maximal inhibitory concentration (IC50) in data set [1] (setting [7]) is above 100000 nM; in data set [2] (setting [8]) it was 250 nM.
As for `C[C@@H]1[C@@H](NCc2cccc(Br)c2)C[C@H]2C[C@@H]1C2(C)C` [VP361], the half-inhibitory concentration (IC50) amounted to 3700 nM in data set [1] (setting [7]) and 390 nM in data set [2] (setting [8]).
Regarding `C[C@@H]1[C@@H](NCc2ncc[nH]2)C[C@H]2C[C@@H]1C2(C)C` [VP358], the results for the IC50 in data set [1] (setting [7]) and in data set [2] (setting [8]) were 13000 nM and 570 nM, respectively.
As for `CCCCCCCCCCCCCCCCOP(=O)([O-])OCC[N+](C)(C)C` [Miltefosine, reference compound], the values for the IC50 in data set [1] (setting [9]) and in data set [2] (setting [10]) were 1200 ± 500 nM and 850 ± 200 nM, respectively. The 50% cytotoxic concentration (CC50) in data set [3] came out at 12500 ± 1300 nM. Moreover, the “% reduction of parasite burden in the liver” value in data set [4] (setting [11]) worked out at 65.9%; in data set [4] (oral route, 10 mg/kg/day × 5), 84.6%. Also, the “LDU ± SD (parasites in the liver)” value in data set [4] (setting [11]) is on record as 0.36 ± 0.08 ×10^8; in data set [4] (oral route, 10 mg/kg/day × 5, autopsy day 15) it was 0.19 ± 0.09 ×10^9. Further, in data set [5], the “Selectivity IC50 (Axenic amastigotes)/IC50 (Intramacrophagic amastigotes)” value (“Selectivity IC50” below) was 1.4.
Regarding `COc1ccc(Br)cc1CN[C@@H]1C[C@H]2CC[C@]1(C)C2(C)C` [VP305], the figures for the concentration for half-maximal inhibition (IC50) in data set [1] (setting [7]) and in data set [2] (setting [8]) were below 500 nM and 60 nM, respectively.
On to `COc1ccc(Br)cc1CNC12CC3CC(CC(C3)C1)C2` [ABMA], for which the IC50 in data set [1] (setting [9]) is above 100000 nM; in data set [1] (setting [7]), above 100000 nM; in data set [2] (setting [8]) it was 7100 nM; in data set [2] (setting [10]), 7100 ± 1700 nM. The compound also came in with a CC50 in data set [3] of 25300 ± 2400 nM. Moreover, the “Selectivity IC50” value in data set [5] is above 14.
With `C[C@@H]1[C@@H](NCc2cc(F)ccc2F)C[C@H]2C[C@@H]1C2(C)C` [VP381], the concentration for half-maximal inhibition (IC50) worked out at 58800 nM in data set [1] (setting [7]) and 170 nM in data set [2] (setting [8]).
The corresponding values for `C[C@@H]1[C@@H](NCc2ccc(-n3ccnc3)cc2)C[C@H]2C[C@@H]1C2(C)C` [VP393] are 8900 nM and 290 nM.
In the case of `COc1ccc(Br)cc1/C=N/C12CC3CC(CC(C3)C1)C2` [VP300A], the IC50 was 4530 nM in data set [1] (setting [7]) and 210 nM in data set [2] (setting [8]).
The corresponding values for `COc1ccc(Br)cc1CN[C@@H]1C[C@@H]2C[C@H]([C@H]1C)C2(C)C` [VP330] are 4860 nM and 250 nM.
The corresponding values for `Cc1ccccc1CN[C@H]1C[C@H]2C[C@@H]([C@@H]1C)C2(C)C` [VP391] are 7550 nM and 210 nM.
In the same order, the values of `COc1ccccc1CN[C@H]1C[C@H]2C[C@@H]([C@@H]1C)C2(C)C` [VP363] are 9990 nM and 190 nM.
For the compound `C[C@@H]1[C@@H](NCc2ccoc2)C[C@H]2C[C@@H]1C2(C)C` [VP354], the half-maximal inhibitory concentration (IC50) in data set [1] (setting [7]) worked out at 4100 nM; in data set [2] (setting [8]) it was 420 nM.
In the same order, the values of `COc1ccc(OC)c(CN[C@H]2C[C@H]3C[C@@H]([C@@H]2C)C3(C)C)c1` [VP369] are 15400 nM and 110 nM.
For the compound `C[C@@H]1[C@H](O)[C@@H](C)/C=C/C=C/C=C/C=C/C=C/C=C/C=C/[C@H](O[C@@H]2O[C@H](C)[C@@H](O)[C@H](N)[C@@H]2O)C[C@@H]2O[C@](O)(C[C@@H](O)C[C@@H](O)[C@H](O)CC[C@@H](O)C[C@@H](O)CC(=O)O[C@H]1C)C[C@H](O)[C@H]2C(=O)O` [Amphotericin B, reference compound], the 50% inhibitory concentration (IC50) is 31 ± 2 nM in data set [1] (Table I, 72 h incubation, read-out: Axenic amastigotes IC50) and 47 ± 5 nM in data set [2] (Table I, RAW 264.7 macrophages, 48 h incubation, read-out: Intramacrophagic amastigotes IC50). Moreover, it took 4500 ± 400 nM to reach half-maximal cytotoxicity with RAW 264.7 macrophages (CC50). Further, the “Selectivity IC50” value in data set [5] is on record as below 1.
Take `C[C@@H]1[C@@H](NCc2cccc(Cl)c2)C[C@H]2C[C@@H]1C2(C)C` [VP371]: the half-inhibitory concentration (IC50) was 30500 nM in data set [1] (setting [7]) and 190 nM in data set [2] (setting [8]).
The corresponding values for `Cc1ccc(-c2ccc(CN[C@H]3C[C@H]4C[C@@H]([C@@H]3C)C4(C)C)cc2)cc1` [VP396] are 5560 nM and 210 nM.
With `C[C@@H]1[C@@H](NCc2ccc3c(c2)Cc2ccccc2-3)C[C@H]2C[C@@H]1C2(C)C` [VP397], the 50% inhibitory concentration (IC50) in data set [1] (setting [7]) was determined as 9720 nM; in data set [2] (setting [8]), 500 nM.
For `COc1cccc(OC)c1CN[C@H]1C[C@H]2C[C@@H]([C@@H]1C)C2(C)C` [VP370], in data set [1] (setting [7]), the half-maximal inhibitory concentration (IC50) amounted to 36300 nM. Further, the IC50 in data set [2] (setting [8]) stood at 40 nM. Further, the “% reduction of parasite burden in the liver” value in data set [4] (oral route, 20 mg/kg/day × 5) is 62.7%. In addition, the “LDU ± SD (parasites in the liver)” value in data set [4] (oral route, 20 mg/kg/day × 5, autopsy day 15) was 0.46 ± 0.12 ×10^9. The “Activity in vivo by oral route (in words)” value in data set [4] (VP343 and VP370 at 20 mg/kg/day×5, VP343 also at 10 mg/kg/day×5, Tukey's multiple comparisons test) is listed as “significantly active”. Also, in data set [6] (setting [12]), the “Serum AST ± SD” value is 330 ± 68 U/L, the “Serum AST ± SD (second AST column)” value amounted to 197 ± 41 U/L, the Serum creatinin is below 18 µM and the Serum urea is listed as 7.9 ± 1.5. Besides, the “Toxicity after single oral treatment (in words)” value in data set [6] (single treatment by oral route at 100 mg/kg) is recorded as “did not show toxicity”.
For the compound `C[C@@H]1[C@@H](NCc2ccc(I)cc2)C[C@H]2C[C@@H]1C2(C)C` [VP390], the 50% inhibitory concentration (IC50) amounted to 21600 nM in data set [1] (setting [7]) and 270 nM in data set [2] (setting [8]).
